Experiments:
[1] = In vitro conversion of prodrug into parent compound in fresh mouse plasma; format: in vitro ADME; settings: 37° C., 0-120 minutes, HPLC/MS, FIG. 2
Method: (§1) A compound of formula (I) of the present invention, dissolved in DMSO, was incubated at 37° C. in PBS at pH 7.4 or fresh mouse plasma. Aliquots were withdrawn and analysed by HPLC/MS at 0, 5, 15, 60 and 120 minutes. The UV signal in the range 210-400 nm was used for the quantification of the chromatographic peaks either of the compound of formula (I) and the parent compound of formula (II).

[2] = system: p-MAPK (T202/Y204) in A375 human melanoma cells, having a mutated B-RAF; assay: p-MAPK (T202/Y204) ArrayScan assay; format: cell-based; settings: A-375, 1.5 or 2 hours treatment, p-MAPK cytoplasmatic fluorescence intensity, read-out: Array Scan A375 IC50
Method: A375 human melanoma cells, having a mutated B-RAF, are seeded in 384-well poly-lysine coated plates (Matrix) at a density of 1000 cells/well with appropriate medium supplemented with 10% FCS and incubated for 16-24 hours. Cells are treated for 1.5 or 2 hours with increasing doses of compounds (starting dose 10 μM, dilution factor 2.5). At the end of the treatment cells are fixed with p-formaldehyde 3.7% for 15-30 min, then I/well) and permeabilized with D-PBS containing washed twice with D-PBS (80 0.1% Triton X-100 and 1% BSA (Sigma-Aldrich) for 15 minutes at room temperature (staining solution). Anti-phospho-MAPK (T202/Y204) monoclonal antibody E10 (Cell Signaling, cat. #9106) diluted 1:100 is added in staining solution and incubated for 1 hour at 37° C. After removal of the primary antibody solution, the anti-mouse Cy™2-conjugated (Green) secondary antibody (Amersham) diluted 1:500 in staining solution containing 2 μg/ml DAPI is added. The plate is incubated for 1 hour at 37° C., washed twice and then red with Cellomics' ArrayScan VTI (4 fields/well, CytoNucTrans algorithm).
The parameter “MEAN_RingAvgIntenCh2”, which measures the mean cytoplasmatic fluorescence intensity associated to p-MAPK staining, is reported as the final result.

[3] = system: human melanoma cells Mewo (with wild-type B-Raf); assay: In vitro cell proliferation assay, Mewo; format: cell-based; settings: 72 hours treatment, cell number by ATP monitoring
Method: (§2) Exponentially growing human melanoma cells A375 (with a mutated B-RAF) and human melanoma cells Mewo (with wild-type B-Raf) were seeded and incubated at 37° C. in a humidified 5% CO2 atmosphere. After 24 hours, scalar doses of the compound were added to the medium and cells oncubated for 72 hours. At the end of treatment, cells were washed and counted. Cell number was determined by a cellular adenosine triphosphate monitoring system. Cell proliferation was compared to control cells and the concentration inhibiting cell growth by 50% was calculated.

[4] = system: human melanoma cells A375 (with a mutated B-RAF); assay: In vitro cell proliferation assay, A375; format: cell-based; settings: A-375, 72 hours treatment, cell number by ATP monitoring
Method: as §2

[5] = Stability study in PBS buffer pH 7.4; format: physicochemical; settings: PBS pH 7.4, 37° C., 0-120 minutes, HPLC/MS; FIG. 1
Method: as §1

| Compound | conversion into the parent compound in fresh mouse plasma [1] | IC50 [2] | IC50 [3] | IC50 [4] | stability in PBS buffer [5] |
| --- | --- | --- | --- | --- | --- |
| CCOC(=O)N(c1ccc(F)c(-c2nn(CC)cc2-c2ccncc2)c1F)S(=O)(=O)c1cc(F)ccc1F [Cmpd. No. 2, ethyl [(2,5-difluorophenyl)sulfonyl]{3-[1-ethyl-4-(pyridin-4-yl)-1H-pyrazol-3-yl]-2,4-difluorophenyl}carbamate] | rapidly converted into the corresponding parent compound | 140 nM | > 10000 nM | 370 nM | stable in buffer |
| CCn1cc(-c2ccncc2)c(-c2c(F)ccc(N(C(=O)OC(C)C)S(=O)(=O)c3cc(F)ccc3F)c2F)n1 [Cmpd. No. 4, propan-2-yl [(2,5-difluorophenyl)sulfonyl]{3-[1-ethyl-4-(pyridin-4-yl)-1H-pyrazol-3-yl]-2,4-difluorophenyl}carbamate] | – | 20 nM | > 10000 nM | 20 nM | – |
| CCn1cc(-c2ccnc(N)c2)c(-c2c(F)ccc(N(C(C)=O)S(=O)(=O)c3cc(F)ccc3F)c2F)n1 [Cmpd. No. 45, N-{3-[4-(2-aminopyridin-4-yl)-1-ethyl-1H-pyrazol-3-yl]-2,4-difluorophenyl}-N-[(2,5-difluorophenyl)sulfonyl]acetamide] | – | 50 nM | > 10000 nM | 90 nM | – |
| CCn1cc(-c2ccncc2)c(-c2c(F)ccc(N(C(=O)OC)S(=O)(=O)c3cc(F)ccc3F)c2F)n1 [compound 1, methyl [(2,5-difluorophenyl)sulfonyl]{3-[1-ethyl-4-(pyridin-4-yl)-1H-pyrazol-3-yl]-2,4-difluorophenyl}carbamate] | – | 20 nM | > 10000 nM | 20 nM | – |
| CCCOC(=O)N(c1ccc(F)c(-c2nn(CC)cc2-c2ccncc2)c1F)S(=O)(=O)c1cc(F)ccc1F [compound 3, propyl [(2,5-difluorophenyl)sulfonyl]{3-[1-ethyl-4-(pyridin-4-yl)-1H-pyrazol-3-yl]-2,4-difluorophenyl}carbamate] | – | 20 nM | > 10000 nM | 20 nM | – |
| CCn1cc(-c2ccncc2)c(-c2c(F)ccc(N(C(C)=O)S(=O)(=O)c3cc(F)ccc3F)c2F)n1 [compound 5, N-[(2,5-difluorophenyl)sulfonyl]-N-{3-[1-ethyl-4-(pyridin-4-yl)-1H-pyrazol-3-yl]-2,4-difluorophenyl}acetamide] | – | 20 nM | > 10000 nM | 20 nM | – |
| CCn1cc(-c2ccncc2)c(-c2c(F)ccc(N(COC(C)=O)S(=O)(=O)c3cc(F)ccc3F)c2F)n1 [compound 7, ([(2,5-difluorophenyl)sulfonyl]{3-[1-ethyl-4-(pyridin-4-yl)-1H-pyrazol-3-yl]-2,4-difluorophenyl}amino)methyl acetate] | – | 20 nM | > 10000 nM | 20 nM | – |
| CCOC(=O)N(c1ccc(F)c(-c2nn(C)cc2-c2ccncc2)c1F)S(=O)(=O)c1cc(F)ccc1F [compound 12, ethyl [(2,5-difluorophenyl)sulfonyl]{3-[1-methyl-4-(pyridin-4-yl)-1H-pyrazol-3-yl]-2,4-difluorophenyl}carbamate] | – | 20 nM | > 10000 nM | 170 nM | – |

— patent US8791265B2, “Sulfonamido derivatives of 3,4-diarylpyrazoles as protein kinase inhibitors” (Nerviano Medical Sciences S.R.L., priority 2010, dated 2014)
